Patent publication US4002752A, “Piperazinylimino rifamycins” (Gruppo Lepetit S.p.A., priority 1975, dated 1977)
Values after ≈ are worked out from the molar mass of the structure shown.

How the values were obtained:
in vivo = details: mouse
Staphylococcus aureus = assay: experimental Staphylococcus aureus infections in mice; assay type: in vivo; details: po; Staphylococcus aureus infection in mice
[1] = system: Mycobacterium tuberculosis H37 Rv; assay: minimal inhibitory concentration in vitro against Mycobacterium tuberculosis H37 Rv; assay type: cell-based; details: H37RV
Experimental: For instance, the value of the minimal inhibitory concentration in vitro of the "cyclopentyl derivative" against Mycobacterium tuberculosis H37 Rv is 0.05 μg/ml, while that of rifampicin is 0.5 μg/ml.

[2] = system: Mycobacterium tuberculosis H37 Rv; assay: survival time of mice infected with Mycobacterium tuberculosis H37 Rv; assay type: in vivo; details: once a week administration per os versus daily administration of rifampicin at the same dose level
Excerpt: The unexpected biological characteristics of the novel rifamycins have been evidenced by considering the survival time after a daily administration of rifampicin in comparison with a once a week administration of the same dose level per os of 3-(4-cyclopentyl-1-piperazinyl)iminomethylrifamycin SV (hereinafter referred to as "cyclopentyl derivative") to mice infected with Mycobacterium tuberculosis H37 Rv.

toxicity in mice (LD50) = details: mouse, in vivo

Structure (SMILES): COC1C=COC2(C)Oc3c(C)c(O)c4c(O)c(c(C=NN5CCN(C6CCC6)CC5)c(O)c4c3C2=O)NC(=O)C(C)=CC=CC(C)C(O)C(C)C(O)C(C)C(OC(C)=O)C1C (stereo not drawn) [cyclobutyl derivative, 3-(4-cyclobutyl-1-piperazinyl)iminomethylrifamycin SV]
- LD50 (in vivo; ip): > 650 mg/kg
- LD50 (in vivo; po): > 2000 mg/kg
- ED50 (Staphylococcus aureus): 0.16 mg/kg

Structure (SMILES): COC1C=COC2(C)Oc3c(C)c(O)c4c(O)c(c(C=NN5CCN(C6CCCC6)CC5)c(O)c4c3C2=O)NC(=O)C(C)=CC=CC(C)C(O)C(C)C(O)C(C)C(OC(C)=O)C1C (stereo not drawn) [cyclopentyl derivative, 3-(4-cyclopentyl-1-piperazinyl)iminomethylrifamycin SV]
- MIC [1]: 0.05 µg/mL (≈ 0.057 µM)
- LD50 (in vivo; ip): > 750 mg/kg
- LD50 (in vivo; po): > 2000 mg/kg
- survival time [2]: about the same survival time

Structure (SMILES): CO[C@H]1/C=C/O[C@@]2(C)Oc3c(C)c(O)c4c(O)c(c(/C=N/N5CCN(C)CC5)c(O)c4c3C2=O)NC(=O)/C(C)=C\C=C\[C@H](C)[C@H](O)[C@@H](C)[C@@H](O)[C@@H](C)[C@H](OC(C)=O)[C@@H]1C [rifampicin]
- LD50 (toxicity in mice (LD50); ip): 416 mg/kg
- LD50 (toxicity in mice (LD50); po): 907 mg/kg
